Laboratory results taken from publication PMC6631999, “A Universal Photochemical Method to Prepare Carbohydrate Sensors Based on Perfluorophenylazide Modified Polydopamine for Study of Carbohydrate-Lectin Interactions by QCM Biosensor” (Polymers, 2019).

What was measured:
[1] = target: T1, soybean agglutinin (SBA) (Glycine max, UniProt P05046); assay: QCM biosensor frequency shift (Attana Cell-A200); assay type: binding
T1 construct: gene LE1; native commercial plant lectin (Vector Laboratories), in solution
T1 sequence (P05046 33-285): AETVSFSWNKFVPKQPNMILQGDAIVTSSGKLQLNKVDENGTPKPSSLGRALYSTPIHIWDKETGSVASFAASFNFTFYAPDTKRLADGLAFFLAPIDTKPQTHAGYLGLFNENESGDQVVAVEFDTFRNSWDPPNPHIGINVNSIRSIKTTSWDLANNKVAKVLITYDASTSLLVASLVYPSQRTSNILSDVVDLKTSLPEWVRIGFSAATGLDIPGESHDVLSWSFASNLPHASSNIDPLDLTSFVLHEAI

[2] = target: T2, peanut agglutinin (PNA) (Arachis hypogaea, UniProt P02872); assay: QCM biosensor frequency shift (Attana Cell-A200); assay type: binding; conditions: sugar photochemically immobilised on PFPA-polydopamine sensor; lectin 100 ug/mL; 10 mM PBS pH 7.4; BSA-blocked
T2 construct: native commercial plant lectin (Vector Laboratories), in solution
T2 sequence (P02872 24-273): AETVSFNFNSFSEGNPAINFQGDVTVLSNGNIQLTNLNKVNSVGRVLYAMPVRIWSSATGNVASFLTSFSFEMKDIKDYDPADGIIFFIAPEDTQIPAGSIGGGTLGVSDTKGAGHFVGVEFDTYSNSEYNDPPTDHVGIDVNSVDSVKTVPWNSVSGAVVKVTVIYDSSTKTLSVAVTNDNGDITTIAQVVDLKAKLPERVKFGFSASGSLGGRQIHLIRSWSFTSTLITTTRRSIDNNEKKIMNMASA

## OC[C@H]1OC(O)[C@H](O)[C@@H](O)[C@H]1O (some centres unmarked) [galactose]
[1]
  QCM biosensor frequency shift (Attana Cell-A200): SBA has the highest binding with galactose, followed by PNA
[2]
  QCM biosensor frequency shift (Attana Cell-A200): both SBA and PNA can bind to galactose, but the binding strengths are different
